Measured values from patent US5861410A, “Tetrahydro-beta-carbolines” (Eli Lilly and Company, priority 1997, dated 1999).
Where a name gives a salt, the structure may show the parent alone.

Legend:
5-HT1c receptor = molecular target: T1, 5-HT1c receptor (Bos taurus, UniProt A0AAA9SBU1); assay: Assay for 5-HT1c affinity, radioligand binding (selectivity against 5-HT2 receptor assay); parameters: species or system beef; details: low IC50 in the 5-HT1c receptor assay and a higher IC50 in the 5-HT2 receptor assay
T1 sequence (A0AAA9SBU1 33-457): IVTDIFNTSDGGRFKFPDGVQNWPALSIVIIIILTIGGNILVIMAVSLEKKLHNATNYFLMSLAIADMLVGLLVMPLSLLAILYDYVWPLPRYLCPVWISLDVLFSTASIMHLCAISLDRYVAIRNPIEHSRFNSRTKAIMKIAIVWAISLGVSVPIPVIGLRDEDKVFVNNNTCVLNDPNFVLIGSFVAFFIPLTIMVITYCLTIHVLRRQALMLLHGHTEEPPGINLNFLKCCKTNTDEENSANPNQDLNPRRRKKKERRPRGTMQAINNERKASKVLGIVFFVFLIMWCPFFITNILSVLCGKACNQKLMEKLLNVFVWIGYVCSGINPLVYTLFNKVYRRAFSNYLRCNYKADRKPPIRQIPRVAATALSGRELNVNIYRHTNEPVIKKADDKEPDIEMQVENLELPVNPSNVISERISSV
Method: Beef brain was removed immediately after slaughter, and choroid plexus were dissected over ice. […] The brain of each was immediately removed and the cerebral cortex was dissected over ice. Tissues were homogenized in 9 volumes of 0.32 mol/L sucrose and centrifuged at 1,000×g for 10 minutes. The supernatant was centrifuged at 17,000 x g for 20 minutes. The pellet was suspended in 100 volumes of 50 mM Tris-HCl (pH7.4), incubated at 37° C. for 10 minutes and centrifuged at 50,000×g for 10 minutes, and the process was repeated three times. The final pellets were frozen at -70° C. and used within 2 weeks. Pellets were rehydrated with physiological buffer prior to use.
For 5-HT1c receptor assays increasing concentrations of experimental compound, 50 mM Tris HCl buffer pH 7.4 , and tritiated mesulergine (2.0 nM) (^3 H ligand) were combined in polystyrene tubes at room temperature. The reaction was initiated by the addition of the resuspended choroid plexus tissue which had been preincubated at 37° C. for 20 minutes. The reaction mixture was incubated in a 37° C. water bath for 15 minutes.
The reactions were terminated by rapid filtration, (Brandel Cell Harvestor), through Whatman GF/B glass filters that had been presoaked in Tris buffer pH 7.4. The filters were then washed 2 times with 5 ml of ice cold Tris buffer pH 7.4. Washed filters were placed in scintillation vials and 10 ml RedySolv, (Brandel), was added and samples were counted in a Searle D-300 beta counter. Means and standard error statistics were calculated for triplicate experimental determinations in certain cases. Mean values were obtained from three or more separate determinations. The incubation time for the reaction mixture was 15 minutes at 37° C.

5HT2C = molecular target: T2, 5HT2C (Homo sapiens, UniProt P28335); assay: Cell assay using human cells, 5HT2C; assay type: binding; details: Table I
T2 construct: expressed in transfected cells
T2 sequence (P28335 33-458): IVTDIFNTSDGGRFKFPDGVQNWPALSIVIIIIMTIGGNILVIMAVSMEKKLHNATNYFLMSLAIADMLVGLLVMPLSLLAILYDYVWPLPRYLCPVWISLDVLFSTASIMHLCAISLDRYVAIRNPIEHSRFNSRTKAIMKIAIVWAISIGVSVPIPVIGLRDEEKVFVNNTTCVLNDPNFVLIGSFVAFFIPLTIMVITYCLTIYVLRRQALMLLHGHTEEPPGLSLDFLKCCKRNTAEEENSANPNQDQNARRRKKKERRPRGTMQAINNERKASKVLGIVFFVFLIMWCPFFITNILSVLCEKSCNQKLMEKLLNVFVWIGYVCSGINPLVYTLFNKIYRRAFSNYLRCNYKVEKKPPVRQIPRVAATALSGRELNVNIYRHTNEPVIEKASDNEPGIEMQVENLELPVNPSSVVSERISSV
Method: (§1) The Kd and Bmax values from the saturation assays were determined for best fit to a one-site or a two-site binding model using a partial F-test. De Lean, A., A. A. Hancock, and R. J. Lefkowitz, Mol. Pharmacol. 21:5-16 (1981). The following equation was used for a one-site binding model, [formula] where Bound=amount of [^3 H]5-HT specifically bound, Bmax =maximum number of binding sites, Kd =equilibrium dissociation constant and [L]=free concentration of [^3 H]5-HT, or a two-site binding model, [formula] where Bound=amount of [^3 H]5-HT specifically bound, Bmax1 =maximum number of high affinity binding sites, Bmax2 =maximum number of low affinity binding sites, Kd1 =equilibrium dissociation constant for the high affinity site, Kd2 =equilibrium dissociation constant for the low affinity site and [L]=free concentration of [^3 H]5-HT. The IC50 values from the competition assays, the binding parameters for the IP3 standard curve and the EC50 and Emax values from the IP3 assays were determined by nonlinear regression analysis of four parameter logistic equations (Systat, Systat Inc, Evanston, Ill.). De Lean, A., A. A. Hancock, and R. J. Lefkowitz, Mol. Pharmacol., 21:5-16 (1981). The IC50 values were converted to Ki values using the Cheng-Prusoff equation. Cheng, Y., and W. H. Prusoff, Biochem. Pharmacol., 22:3099-3108 (1973).
(§2) The following Cell assays use Human Cells

5HT2B = molecular target: T3, 5HT2B (Homo sapiens, UniProt P41595); assay: Cell assay using human cells, 5HT2B (radioligand binding); details: Table I
T3 construct: expressed in transfected cells

5HT2A = molecular target: T4, 5HT2A (Homo sapiens, UniProt P28223); assay: Cell assay using human cells, 5HT2A; assay type: binding; details: Table I
T4 construct: expressed in transfected cells
Method: as §1, §2

T4 sequence (P28223 whole entry): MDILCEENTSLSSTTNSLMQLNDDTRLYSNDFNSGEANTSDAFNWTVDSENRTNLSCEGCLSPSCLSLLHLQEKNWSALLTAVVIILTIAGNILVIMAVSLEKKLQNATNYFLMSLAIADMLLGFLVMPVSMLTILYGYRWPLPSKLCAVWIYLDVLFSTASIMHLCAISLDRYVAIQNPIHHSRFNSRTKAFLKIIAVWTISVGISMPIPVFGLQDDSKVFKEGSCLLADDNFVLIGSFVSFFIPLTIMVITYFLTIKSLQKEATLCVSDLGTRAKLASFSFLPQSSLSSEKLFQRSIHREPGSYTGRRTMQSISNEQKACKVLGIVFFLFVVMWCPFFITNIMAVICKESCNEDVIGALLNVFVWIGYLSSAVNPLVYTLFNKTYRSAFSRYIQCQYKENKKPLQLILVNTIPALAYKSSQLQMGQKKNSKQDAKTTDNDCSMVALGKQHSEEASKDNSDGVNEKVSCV
T3 sequence (P41595 whole entry): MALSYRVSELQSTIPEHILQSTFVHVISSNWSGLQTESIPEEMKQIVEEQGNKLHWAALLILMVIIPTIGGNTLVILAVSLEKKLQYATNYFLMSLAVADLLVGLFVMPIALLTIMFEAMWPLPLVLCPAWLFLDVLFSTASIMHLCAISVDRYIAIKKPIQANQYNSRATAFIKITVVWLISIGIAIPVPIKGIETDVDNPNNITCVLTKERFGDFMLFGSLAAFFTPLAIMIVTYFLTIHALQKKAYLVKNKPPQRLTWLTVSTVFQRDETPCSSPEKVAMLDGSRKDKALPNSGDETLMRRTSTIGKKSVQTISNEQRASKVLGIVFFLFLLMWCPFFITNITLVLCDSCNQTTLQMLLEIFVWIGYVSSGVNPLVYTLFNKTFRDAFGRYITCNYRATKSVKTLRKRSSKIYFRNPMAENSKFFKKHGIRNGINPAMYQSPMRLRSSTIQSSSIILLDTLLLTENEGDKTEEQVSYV

Ki (5HT2C) [nM] | Ki (5HT2B) [nM] | Ki (5HT2A) [nM] | SMILES | 5-HT1c selective (5-HT1c receptor) | Ki (5HT2C; hydrochloride) [nM] | Ki (5HT2B; hydrochloride) [nM] | Ki (5HT2A; hydrochloride) [nM]
1120 | 106 | 556 | COc1ccc(CC2N[C@@H]3CCC[C@H]3c3c2[nH]c2c(C)cc(C)cc32)cc1OC (relative stereo) [Example 10, Trans-5-(3,4-dimethoxybenzyl)-7,9-dimethyl-1,2,3,4,4a,5,6,10c-octahydrocyclopenta[a]pyrido [3,4-b]indole, hydrochloride] | particularly 5-HT1c selective | – | – | –
2170 | 168 | 917 | COc1ccc(CC2N[C@@H]3CCCC[C@H]3c3c2[nH]c2c(C)cc(C)cc32)cc1OC (relative stereo) [Example 13, Trans-6-(3,4-dimethoxybenzyl)-8,10-dimethyl-2,3,4,4a,5,6,7,11c-octahydro-1H-indolo[2,3-c]quinoline, hydrochloride] | particularly 5-HT1c selective | – | – | –
– | – | – | Cl.N[C@@H]1CCCC[C@H]1c1c[nH]c2c(Cl)cccc12 (relative stereo) [Example 4, Trans-3-(2-amino-cyclohexyl)-7-chloroindole, hydrochloride] | particularly 5-HT1c selective | – | – | –
– | – | – | COc1cc2c(cc1OC)CC1(CC2)N[C@H]2CCCC[C@@H]2c2c1[nH]c1ccc(C)cc21 (single isomer, unassigned; isomer 18) [Isomer 18(1), Trans-spiro-6,6-[2-(3,4-dimethoxy)-1,2,3,4-tetrahydronaphthyl]-10-methyl-2,3,4,4a,5,6,7,11a-octahydro-1 H-indolo[2,3-c]quinidine, hydrochloride] | – | 138 | 143 | 153
783 | 121 | 172 | COc1ccc(CC2N[C@@H]3CCCC[C@H]3c3c2[nH]c2c(Cl)cccc32)cc1OC (relative stereo) [Example 12, Trans-8-chloro-6-(3,4-dimethoxybenzyl)-2,3,4,4a,5,6,7,11c-octahydro-1H-indolo[2,3-c]quinoline, hydrochloride] | – | – | – | –
352 | 16.4 | 293 | COc1ccc(CC2N[C@@H]3CCCC[C@H]3c3c2[nH]c2ccc(C)cc32)cc1OC (relative stereo) [Example 11, Trans-6-(3,4-dimethoxybenzyl)-10-methyl-2,3,4,4a,5,6,7,11c-octahydro-1H-indolo[2,3-c]quinoline, hydrochloride] | – | – | – | –
– | – | – | COc1cc2c(cc1OC)CC1(CC2)N[C@H]2CCCC[C@@H]2c2c1[nH]c1ccc(C)cc21 (relative stereo) [Example 18, Trans-spiro-6,6-[2-(3,4-dimethoxy)-1,2,3,4-tetrahydronaphthyl]-10-methyl-2,3,4,4a,5,6,7,11a-octahydro-1 H-indolo[2,3-c]quinidine, hydrochloride] | – | 325 | 178 | 363
– | – | – | Cc1ccc2[nH]cc([C@@H]3CCCC[C@H]3N)c2c1.Cl (relative stereo) [Example 3, Trans-3-(2-amino-cyclohexyl)-5-methylindole, hydrochloride] | particularly 5-HT1c selective | – | – | –
– | – | – | COc1cc2c(cc1OC)CC1(CC2)N[C@H]2CCCC[C@@H]2c2c1[nH]c1ccc(C)cc21 (single isomer, unassigned; isomer 18) [Isomer 18(2), Trans-spiro-6,6-[2-(3,4-dimethoxy)-1,2,3,4-tetrahydronaphthyl]-10-methyl-2,3,4,4a,5,6,7,11a-octahydro-1 H-indolo[2,3-c]quinidine, hydrochloride] | – | 6210 | 2890 | 1970
221 | 9.56 | 124 | COc1ccc(CC2N[C@@H]3CCC[C@H]3c3c2[nH]c2ccc(C)cc32)cc1OC (relative stereo) [Example 8, Trans-5-(3,4-dimethoxybenzyl)-9-methyl-1,2,3,4,4a,5,6,10c-octahydrocyclopenta[a]pyrido [3,4-b]indole, hydrochloride] | – | – | – | –
1110 | 367 | 264 | Cc1cc(C)c2[nH]c3c(c2c1)[C@@H]1CCCC[C@H]1NC3Cc1cccc2ccccc12 (relative stereo) [Example 17, Trans-8,10-dimethyl-6-(1-naphthylmethyl)-2,3,4,4a,5,6,7,11c-octahydro-1H-indolo[2,3-c]quinoline, hydrochloride] | – | – | – | –
– | – | – | Cc1ccc2[nH]c3c(c2c1)[C@@H]1CCCC[C@H]1NC3 (relative stereo) [Example 6, Trans-10-methyl-2,3,4,4a,5,6,7,11c-octahydro-1H-indolo[2,3-c] quinoline, hydrochloride] | particularly 5-HT1c selective | – | – | –
9250 | 3520 | 1450 | COc1ccc(CC2N[C@@H]3CCCCC[C@H]3c3c2[nH]c2ccc(C)cc32)cc1OC (relative stereo) [Example 14, Trans-7-(3,4-dimethoxybenzyl)-11-methyl-1,2,3,4,5,5a,6,7,8,12a-decahydrocyclohepta[a]pyrido[3,4-b]indole, hydrochloride] | – | – | – | –
– | – | – | Cc1ccc2[nH]c3c(c2c1)[C@@H]1CCCC[C@H]1NC3Cc1cccc2ccccc12 (relative stereo) [Example 16, Trans-10-methyl-6-(1-naphthylmethyl)-2,3,4,4a,5,6,7,11c-octahydro-1H-indolo[2,3-c]quinoline, hydrochloride] | particularly 5-HT1c selective | – | – | –

SMILES | Ki (5HT2C) [nM] | Ki (5HT2B) [nM] | Ki (5HT2A) [nM] | 5-HT1c selective (5-HT1c receptor) | Ki (5HT2C; hydrochloride) [nM] | Ki (5HT2B; hydrochloride) [nM] | Ki (5HT2A; hydrochloride) [nM]
Clc1cccc2c3c([nH]c12)CN[C@@H]1CCCC[C@@H]31 (relative stereo) [Example 7, Trans-8-chloro-2,3,4,4a,5,6,7,11c-octahydro-1 H-indolo[2,3-c]quinoline, hydrochloride] | 977 | 668 | 278 | particularly 5-HT1c selective | – | – | –
Cc1ccc2[nH]c3c(c2c1)[C@@H]1CCC[C@H]1NC3Cc1cccc2ccccc12 (relative stereo) [Example 15, Trans-9-methyl-5-(1-naphthylmethyl)-1,2,3,4,4a,5,6,10c-octahydrocyclopenta[a]pyrido [3,4]-blindole, hydrochloride] | 52.1 | – | 33 | – | – | – | –
COc1ccc(CC2N[C@@H]3CCC[C@H]3c3c2[nH]c2c(Cl)cccc32)cc1OC (relative stereo) [Example 9, Trans-7-chloro-5-(3,4-dimethoxybenzyl)-1,2,3,4,4a,5,6,10c-octahydrocyclopenta[a]pyrido [3,4-b]indole, hydrochloride] | 203 | 52.5 | 53.6 | – | – | – | –
